Measurements from patent US20250122181A1, “BENZIMIDAZOLES AS MODULATORS OF IL-17” (Janssen Pharmaceutica NV, priority 2021, published 2025).
pIC50: −log10 of the molar value.

Columns and labels:
[1] = target: IL-17A(FLAG-Tagged): IL-17RA(His-Tagged) (Homo sapiens, UniProt Q16552, K93Q); assay: IL-17A(FLAG-Tagged): IL-17RA(His-Tagged) Binding Disruption Eu-HTRF Assay, Protocol 1; details: Protocol 1, FLAG tagged IL-17A 2.5 nM; simple average if tested more than once
Text: An antibody directed against the FLAG tag of IL-17A (SEQ ID NO: 1) is labeled with the HTRF donor chromophore (Europium-cryptate). IL-17A is present as a dimer that is “locked into” this quaternary structure due to the formation of loop-spanning […] disulfide bridges. The construct of IL-17RA used in the assay excludes the […] portion of the receptor and is fused to a C-terminal 10×His tag (SEQ ID NO:2). An antibody directed against the His tag of the IL-17RA chimera is labeled with the HTRF acceptor chromophore (“D2”). The fluorescence-resonance energy transfer (FRET) depends on the vicinity of the donor chromophore to the acceptor, and interruption of the binding between the IL-17A and IL-17RA causes the reduction/loss of FRET. Therefore, this assay allows to evaluate the compound effect on the binding IL-17A and IL-17RA by monitoring the fluorescence intensity of donor vs acceptor. The assay was run using either Protocol 1 or Protocol 2 as described below.
Protocol 1. 40 nl of 2-fold serial diluted compound solution for total 22 dilution points is added into each well of a 1536-well, white, low-volume, non-binding plate (Greiner #782904), then 2 μl of FLAG tagged IL-17A at 2× final concentration (2.5 nM) in solution of PBS+0.01% Triton-X100 is added to each well. The assay plate is briefly centrifuged then incubated for 1 h at rt. A mixed solution is prepared containing 2×5 nM 10HIS×IL-17RA, 2×2.5 nM Eu-anti-FLAG (CISBIO), 2×5 nM D2-anti-HIS (CISBIO) in PBS+0.01% Triton-X100+200 mM Potassium Fluoride (Sigma 60238) and 2 μl of mix is added to each well of the assay plate. The plate is briefly centrifuged then incubated for 2 h at rt. The HTRF intensities at the wavelength of donor (620 nm) and acceptor (665 nm) are measured using BMG Pherastar. The ratio between intensities at two wavelengths is calculated and plotted against the compound concentration and the data is fitted to a one-site competition model to yield IC50 of the compound.

[2] = test system: IL-17A-induced G-CSF production in human normal keratinocyte (NHK); assay: NHK Assay: IL-17A-induced G-CSF production in human normal keratinocyte; type: cell-based; details: 24 h, IL-17A 5 ng/mL, simple average if tested more than once
Procedure: IL-17A acts directly on keratinocytes through binding to dimeric receptor IL-17RA/RC and drives the production of a number of inflammatory mediators known to be elevated in psoriasis lesional tissue. IL-17A small molecule inhibitors that block the IL-17A to interact with IL-17R would inhibit the IL-17A signaling in its targeted cells such as keratinocytes. The compound functional activity is evaluated for its impact on IL-17A-induced G-CSF production in human normal keratinocyte (NHK).
Adult normal human keratinocytes are cultured in keratinocyte growth medium (Lonza) in a flask till reaching ˜90% confluence, then cells are transferred to a 384-well plate at density of 3000-4000 cell/well. Recombinant human IL-17A (Gibco PHC9174) is pre-incubated with titrated compound or DMSO for 1 h at rt then added to the cell culture plate. The final concentration of IL-17A is 5 ng/mL and DMSO is 0.2%, in the culture containing 5% FBS. Cells are cultured/treated for 24 h at 37° C. Supernatants are collected and G-CSF production is measured through HTRF technology using Human G-CSF Kit (CisBio). G-CSF concentration was extrapolated from the standard curve and IC50 is determined using GraphPad Prism. Cell viability is also evaluated using CellTiter-Glo kit (Promega) and effect of compound on cell viability is compared to DMSO control.

Chain of UniProt Q16552 (Q16552 with tags, fused parts or gaps K93Q): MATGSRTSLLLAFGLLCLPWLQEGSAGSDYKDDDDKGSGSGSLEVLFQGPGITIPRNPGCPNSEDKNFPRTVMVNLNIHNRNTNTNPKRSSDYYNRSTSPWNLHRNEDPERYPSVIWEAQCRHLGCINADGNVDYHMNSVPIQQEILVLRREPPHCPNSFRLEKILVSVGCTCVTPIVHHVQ

SMILES	pIC50 [1]	pIC50 ([2]; Homo sapiens, Keratinocyte)	pIC50 [2]
CC(C)n1nccc1C(=O)N[C@@H](COC(C)(C)C(F)(F)F)c1nc2nc(CN3C[C@@H](C(F)(F)F)NC3=O)ccc2[nH]1 (relative stereo) [Example 37, 1-Isopropyl-N—((R*)-1-(5-(((S*)-2-oxo-4-(trifluoromethyl)imidazolidin-1-yl)methyl)-1H-imidazo[4,5-b]pyridin-2-yl)-2-((1,1,1-trifluoro-2-methylpropan-2-yl)oxy)ethyl)-1H-pyrazole-5-carboxamide]	< 7.00	< 7.00	–
Cc1nonc1C(=O)NC(c1nc2cc([C@@H](C3CC3)N3C[C@@H](C(F)(F)F)NC3=O)ccc2[nH]1)[C@@H](C)O[C@H](C)C(F)(F)F (single isomer, unassigned) [Example 10, N-((1R*,2R)-1-(5-((R)-Cyclopropyl((S)-2-oxo-4-(trifluoromethyl)imidazolidin-1-yl)methyl)-1H-benzo[d]imidazol-2-yl)-2-(((R)-1,1,1-trifluoropropan-2-yl)oxy)propyl)-4-methyl-1,2,5-oxadiazole-3-carboxamide]	> 7.30	> 7.30	–
COCC(c1ccc2[nH]c([C@H](COC(C)(C)C(F)(F)F)NC(=O)c3nonc3C)nc2c1)N1CC(C)(C)NC1=O (single isomer, unassigned) [Example 48, N—((R)-1-(5-((R*)-1-(4,4-Dimethyl-2-oxoimidazolidin-1-yl)-2-methoxyethyl)-1H-benzo[d]imidazol-2-yl)-2-((1,1,1-trifluoro-2-methylpropan-2-yl)oxy)ethyl)-4-methyl-1,2,5-oxadiazole-3-carboxamide]	> 7.30	> 7.30	–
CC(C)n1nccc1C(=O)N[C@H](c1nc2c(F)cc([C@@H](C3CC3)N3C[C@@H](C(F)(F)F)NC3=O)cc2[nH]1)[C@@H](C)O[C@H](C)C(F)(F)F [Example 85, N-[(1R,2R)-1-[6-[(R)-Cyclopropyl-[(4S)-2-oxo-4-(trifluoromethyl)imidazolidin-1-yl]methyl]-4-fluoro-1H-benzimidazol-2-yl]-2-[(1R)-2,2,2-trifluoro-1-methyl-ethoxy]propyl]-2-isopropyl-pyrazole-3-carboxamide]	7.00 to 7.30	> 7.30	–
C[C@H](O[C@H](C)C(NC(=O)c1ccnn1C)c1nc2cc([C@@H](C3CC3)N3C[C@@H](C(F)(F)F)NC3=O)ccc2[nH]1)C(F)(F)F (single isomer, unassigned) [Example 14, N-((1R*,2R)-1-(5-((R)-Cyclopropyl((S)-2-oxo-4-(trifluoromethyl)imidazolidin-1-yl)methyl)-1H-benzo[d]imidazol-2-yl)-2-(((S)-1,1,1-trifluoropropan-2-yl)oxy)propyl)-1-methyl-1H-pyrazole-5-carboxamide]	> 7.30	> 7.30	–
COC[C@H](c1ccc2[nH]c([C@@H](NC(=O)c3nonc3C)[C@@H](C)O[C@@H](C)C(F)(F)F)nc2c1)N1C[C@@H](C(F)(F)F)NC1=O [Example 62, N-((1R,2R)-1-(5-((S)-2-Methoxy-1-((S)-2-oxo-4-(trifluoromethyl)imidazolidin-1-yl)ethyl)-1H-benzo[d]imidazol-2-yl)-2-(((S)-1,1,1-trifluoropropan-2-yl)oxy)propyl)-4-methyl-1,2,5-oxadiazole-3-carboxamide]	> 7.30	> 7.30	–
[2H]C1([2H])[C@@H](C(F)(F)F)NC(=O)N1[C@@H](c1ccc2[nH]c([C@@H](NC(=O)c3nonc3C)[C@@H](C)O[C@H](C)C(F)(F)F)nc2c1)C1CC1 (relative stereo) [Example 9, N-((1R*,2R)-1-(5-((R)-Cyclopropyl((S*)-2-oxo-4-(trifluoromethyl)imidazolidin-1-yl-5,5-d2)methyl)-1H-benzo[d]imidazol-2-yl)-2-(((R)-1,1,1-trifluoropropan-2-yl)oxy)propyl)-4-methyl-1,2,5-oxadiazole-3-carboxamide]	> 7.30	> 7.30	–
[2H]C([2H])([2H])C([2H])([2H])n1nccc1C(=O)N[C@@H](COC(C)(C)C(F)(F)F)c1nc2cc([C@@H](C3CC3)N3C[C@@H](C(F)(F)F)NC3=O)ccc2[nH]1 [Example 4, N—((R)-1-(5-((R)-Cyclopropyl((S)-2-oxo-4-(trifluoromethyl)imidazolidin-1-yl)methyl)-1H-benzo[d]imidazol-2-yl)-2-((1,1,1-trifluoro-2-methylpropan-2-yl)oxy)ethyl)-1-(ethyl-d5)-1H-pyrazole-5-carboxamide]	> 7.30	> 7.30	–
CO[C@H](CC(F)(F)F)[C@@H](NC(=O)c1nonc1C1CC1)c1nc2cc(CN3C[C@@H](C(F)(F)F)NC3=O)ccc2[nH]1 (single isomer, unassigned) [Example 45, 4-Cyclopropyl-N-((1S*,2R*)-4,4,4-trifluoro-2-methoxy--(5-(((S)-2-oxo-4-(trifluoromethyl)imidazolidin-1-yl)methyl)-1H-benzo[d]imidazol-2-yl)butyl)-1,2,5-oxadiazole-3-carboxamide]	–	7.00 to 7.30	–
C[C@@H](O[C@H](C)C(F)(F)F)[C@H](NC(=O)c1nonc1C1CC1)c1nc2ccc(CN3C[C@@H](C(F)(F)F)NC3=O)c(F)c2[nH]1 [Example 93, 4-Cyclopropyl-N-[(1R,2R)-1-[7-fluoro-6-[[(4S)-2-oxo-4-(trifluoromethyl)imidazolidin-1-yl]methyl]-1H-benzimidazol-2-yl]-2-[(1R)-2,2,2-trifluoro-1-methyl-ethoxy]propyl]-1,2,5-oxadiazole-3-carboxamide]	–	> 7.30	–
[2H]C1([2H])NC(=O)N([C@@H](c2ccc3[nH]c([C@H](COC(C)(C)C(F)(F)F)NC(=O)c4nonc4C4CC4)nc3c2)C2CC2)C([2H])([2H])C1(F)F [Example 78, 4-Cyclopropyl-N—((R)-1-(5-((R)-cyclopropyl(5,5-difluoro-2-oxotetrahydropyrimidin-1(2H)-yl-4,4,6,6-d4)methyl)-1H-benzo[d]imidazol-2-yl)-2-((1,1,1-trifluoro-2-methylpropan-2-yl)oxy)ethyl)-1,2,5-oxadiazole-3-carboxamide]	–	> 7.30	–
[2H]C1([2H])NC(=O)N([C@@H](c2ccc3[nH]c([C@H](COC(C)(C)C(F)(F)F)NC(=O)c4nonc4C)nc3c2)C2CC2)CC1(F)F [Example 81, N-[(1R)-1-[5-[(R)-Cyclopropyl-(4,4-dideuterio-5,5-difluoro-2-oxo-hexahydropyrimidin-1-yl)methyl]-1H-benzimidazol-2-yl]-2-(2,2,2-trifluoro-1,1-dimethyl-ethoxy)ethyl]-4-methyl-1,2,5-oxadiazole-3-carboxamide]	–	> 7.30	–
COCC(c1ccc2[nH]c([C@H](COC(C)(C)C(F)(F)F)NC(=O)c3nonc3C)nc2c1)N1C[C@@](C)(C(F)(F)F)NC1=O (single isomer, unassigned) [Example 64, N—((R)-1-(5-((S*)-2-Methoxy-1-((S)-4-methyl-2-oxo-4-(trifluoromethyl)imidazolidin-1-yl)ethyl)-1H-benzo[d]imidazol-2-yl)-2-((1,1,1-trifluoro-2-methylpropan-2-yl)oxy)ethyl)-4-methyl-1,2,5-oxadiazole-3-carboxamide]	–	–	< 7.00
Cc1nonc1C(=O)N[C@@H](COC(C)(C)C(F)(F)F)c1nc2cc([C@@H](C3CC3)N3CC(CC(F)(F)F)NC3=O)ccc2[nH]1 (single isomer, unassigned) [Example 88, N—((R)-1-(5-((R)-Cyclopropyl((R*)-2-oxo-4-(2,2,2-trifluoroethyl)imidazolidin-1-yl)methyl)-1H-benzo[d]imidazol-2-yl)-2-((1,1,1-trifluoro-2-methylpropan-2-yl)oxy)ethyl)-4-methyl-1,2,5-oxadiazole-3-carboxamide]	–	> 7.30	–
